Data as given in US7312360B2, “Substituted hydroxyethylamines” (Elan Pharmaceuticals, Inc., priority 2001, dated 2007).

**Q.** For CCCCCCOc1cccc(C[C@H](NC(C)=O)[C@H](O)CNCc2cccc(CC)c2)c1 [Example 93B, N-{(1S,2R)-3-[(3-ethylbenzyl)amino]-1-[3-(hexyloxy)benzyl]-2-hydroxypropyl}acetamide], which melting point is on record?
**A.** The melting point was 102 to 105 °C.

**Q.** Which melting point does the source give for CCCCOc1cccc(C[C@H](NC(C)=O)[C@H](O)CNCc2cccc(CC)c2)c1 [Example 50b, N-{(1S,2R)-1-(3-butoxybenzyl)-3-[(3-ethylbenzyl)amino]-2-hydroxypropyl}acetamide] here?
**A.** Its melting point is 112 to 114 °C.

**Q.** Which melting point does the source give for CCCCOc1cccc(C[C@H](NC(=O)c2coc(NS(C)(=O)=O)n2)[C@H](O)CNCc2cccc(CC)c2)c1 [Example 50a, N-{(1S,2R)-1-(3-butoxybenzyl)-3-[(3-ethylbenzyl)amino]-2-hydroxypropyl}-2-[(methylsulfonyl)amino]-1,3-oxazole-4-carboxamide] here?
**A.** Its melting point is 78 to 80 °C.

**Q.** For CCCCCCOc1cccc(C[C@H](NC(=O)c2coc(NS(C)(=O)=O)n2)[C@H](O)CNCc2cccc(CC)c2)c1 [Example 45, N-{(1S,2R)-3-[(3-ethylbenzyl)amino]-1-[3-(hexyloxy)benzyl]-2-hydroxypropyl}-2-[(methylsulfonyl)amino]-1,3-oxazole-4-carboxamide], which melting point is on record?
**A.** Its melting point is 85 to 90 °C.

**Q.** Which melting point does the source give for CCCCOc1cccc(C[C@H](N)[C@H](O)CNCc2cccc(CC)c2)c1.Cl.Cl here?
**A.** Its melting point is 197 to 199 °C.

**Q.** For CCCCCCOc1cccc(C[C@H](NC(=O)c2cccc(-c3ncco3)c2)[C@H](O)CNCc2cccc(CC)c2)c1 [Example 93A, N-{(1S,2R)-3-[(3-ethylbenzyl)amino]-1-[3-(hexyloxy)benzyl]-2-hydroxypropyl}-3-(1,3-oxazol-2-yl)benzamide], which melting point is on record?
**A.** Its melting point is 117 to 120 °C.
